Experimental findings from ChEMBL document CHEMBL4715930, “Reactivation of the Guardian of the Genome P53: A Promising Strategy for Treatment of Cancer” (ACS Med Chem Lett, 2021) are described below.

pIC50: −log10 of the molar value.

This test has as its target Tumour suppressor p53/oncoprotein Mdm2 (Homo sapiens, UniProt Q00987). The experiment in a line: Inhibition of GST-tagged MDM2 (23 to 117 residues) (unknown origin) assessed as inhibition of MDM2/biotinylated wild type human p53 (16 to 27 residues) interaction by measuring reactivation of p53 incubated for 15 mins by AlphaScreen assay. Type of test: protein assay.

Tumour suppressor p53/oncoprotein Mdm2, sequence (P04637 whole entry, the tested form may be a part): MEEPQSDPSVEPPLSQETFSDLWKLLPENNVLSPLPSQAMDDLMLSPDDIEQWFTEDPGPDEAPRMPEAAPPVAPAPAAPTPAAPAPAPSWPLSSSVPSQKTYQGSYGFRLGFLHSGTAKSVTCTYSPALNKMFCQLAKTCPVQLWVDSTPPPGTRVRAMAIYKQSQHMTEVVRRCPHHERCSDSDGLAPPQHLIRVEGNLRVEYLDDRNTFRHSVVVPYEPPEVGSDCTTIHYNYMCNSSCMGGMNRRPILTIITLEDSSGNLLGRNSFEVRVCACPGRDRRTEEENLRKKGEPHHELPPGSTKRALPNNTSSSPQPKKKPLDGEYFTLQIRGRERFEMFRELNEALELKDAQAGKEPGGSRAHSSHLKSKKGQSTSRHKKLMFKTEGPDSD
Tumour suppressor p53/oncoprotein Mdm2, sequence (Q00987 whole entry, the tested form may be a part): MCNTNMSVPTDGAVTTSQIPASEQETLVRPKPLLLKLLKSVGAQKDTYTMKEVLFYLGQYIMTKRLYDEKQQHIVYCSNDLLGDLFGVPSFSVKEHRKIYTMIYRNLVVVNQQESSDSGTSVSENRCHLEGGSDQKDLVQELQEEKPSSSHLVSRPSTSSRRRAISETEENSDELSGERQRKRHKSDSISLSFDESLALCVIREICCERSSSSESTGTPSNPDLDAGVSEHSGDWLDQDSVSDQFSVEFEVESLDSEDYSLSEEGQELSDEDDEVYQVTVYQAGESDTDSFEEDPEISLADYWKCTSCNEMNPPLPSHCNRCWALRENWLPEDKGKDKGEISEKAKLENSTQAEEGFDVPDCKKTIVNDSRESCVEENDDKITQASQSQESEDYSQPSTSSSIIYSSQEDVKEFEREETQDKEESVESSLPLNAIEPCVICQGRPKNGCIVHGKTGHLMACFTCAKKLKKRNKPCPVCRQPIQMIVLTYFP

For `CCOc1cccc(CN2[C@H]3Cc4c5cc(C)c(C(=O)NC)cc5nn4[C@H]3[C@H](c3cccc(Cl)c3F)[C@]23C(=O)Nc2nc(Cl)ccc23)c1`, the pIC50 is 8.30.

In the case of `O=C(O)c1ccc2c(c1)nc1n2CC[C@@H]2[C@H]1[C@H](c1cccc(Cl)c1F)[C@]1(C(=O)Nc3cc(Cl)ccc31)N2CC1CC1`, the pIC50 is 7.10. The result for `Cc1c(C(=O)N2CCCCC2)ccn2c3c(nc12)[C@@H]1[C@H](CC3)N(CC2CC2)[C@@]2(C(=O)Nc3cc(Cl)ccc32)[C@H]1c1ccnc(Cl)c1F` reads 8.00.
